Experimental data published in publication PMC9931769, “Bacterial origins of thymidylate metabolism in Asgard archaea and Eukarya” (Nature Communications, 2023).
One block for each molecule: values may come before it.

What was measured:
[1] = molecular target: T1, Psyn ThyX (Promethearchaeum syntrophicum, UniProt A0A5B9D7C8); assay: inhibition of NADPH oxidation, absorbance at […] nm; type: biochemical
T1 sequence (A0A5B9D7C8 1-298): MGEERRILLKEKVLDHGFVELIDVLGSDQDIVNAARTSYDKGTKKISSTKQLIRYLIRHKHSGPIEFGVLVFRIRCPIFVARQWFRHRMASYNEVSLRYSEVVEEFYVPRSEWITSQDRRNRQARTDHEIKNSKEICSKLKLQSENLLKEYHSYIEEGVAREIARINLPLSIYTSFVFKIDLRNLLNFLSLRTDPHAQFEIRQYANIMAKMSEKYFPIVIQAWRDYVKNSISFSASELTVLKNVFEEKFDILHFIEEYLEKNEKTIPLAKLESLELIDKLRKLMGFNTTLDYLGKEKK

[2] = substrate: O=c1ccn([C@H]2C[C@H](O)[C@@H](COP(=O)(O)O)O2)c(=O)[nH]1; assay: purified protein; type: biochemical, Promethearchaeum syntrophicum; details: 50 mM sodium phosphate pH 8, 300 mM NaCl, 2 mM MgCl2, 50 μM FAD, 750 μM NADPH, 0.4 μM enzyme, 25 °C

inhibition at 200 µM [1]: > 50%
Molecule: Nc1nc2c(c(=O)[nH]1)N1CN(c3ccc(C(=O)N[C@@H](CCC(=O)O)C(=O)O)cc3)C[C@H]1CN2 [CH2H4folate]

inhibition at 200 µM [1]: > 50%
Molecule: Nc1nc2c(c(=O)[nH]1)N[C@@H](CNc1ccc(C(=O)N[C@@H](CCC(=O)O)C(=O)O)cc1)CN2 [H4folate]

B1: Psyn ThyX (Promethearchaeum syntrophicum) (protein)
chain: T1 sequence (A0A5B9D7C8 1-298)
Km [2]: 0.235 ± 0.035 µM
